# Test results: ChEMBL document CHEMBL1201862, “PubChem BioAssay data set” (2004)
#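 The compound was tested at five concentrations on cells cultured in 96-well plates, with a 48-hour exposure period. Here, GI50 denotes the concentration required for 50% inhibition of growth.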 The source made the active and inactive calls. Rule as the data show it: active = GI50 up to about 1.1 µM and inactive = higher.
# Assays:
# Experiment in all cases: NCI tumour cell line growth inhibition, 48 h
# CCRF-CEM = system: CCRF-CEM
# COLO 205 = system: COLO 205
# EKVX = system: EKVX
# HOP-92 = system: HOP-92
# MDA-MB-231 = system: MDA-MB-231
# MDA-MB-435 = system: MDA-MB-435
# MOLT-4 = system: MOLT-4
# Malme-3M = system: Malme-3M
# NCI-H522 = system: NCI-H522
# RPMI-8226 = system: RPMI-8226
# RXF 393 = system: RXF 393
# SF-295 = system: SF-295
# SK-MEL-2 = system: SK-MEL-2
# SN12C = system: SN12C
# SNB-19 = system: SNB-19
# SW-620 = system: SW-620
# U-251 = system: U-251
# SK-OV-3 = system: SK-OV-3
# UO-31 = system: UO-31
SMILES,GI50 (CCRF-CEM),GI50 (COLO 205),GI50 (EKVX),GI50 (HOP-92),GI50 (MDA-MB-231),GI50 (MDA-MB-435),GI50 (MOLT-4),GI50 (Malme-3M),GI50 (NCI-H522),GI50 (RPMI-8226),GI50 (RXF 393),GI50 (SF-295),GI50 (SK-MEL-2),GI50 (SN12C),GI50 (SNB-19),GI50 (SW-620),GI50 (U-251),GI50 (SK-OV-3),GI50 (UO-31)
Cc1cc2c(cc1-c1cc3c(cc1C)C(C(C)C)=C(O)C(=O)/C3=C\Nc1ccccn1)/C(=C/Nc1ccccn1)C(=O)C(O)=C2C(C)C,12.2 µM (inactive),> 100 µM (inactive),37.8 µM (inactive),> 100 µM (inactive),94.6 µM (inactive),43.5 µM (inactive),25.7 µM (inactive),21.6 µM (inactive),21.8 µM (inactive),21.7 µM (inactive),45.5 µM (inactive),49.9 µM (inactive),37.8 µM (inactive),74.6 µM (inactive),52.6 µM (inactive),48 µM (inactive),34.4 µM (inactive),–,–
O=C(OCc1ccccc1)N1CCNCCN(C(=O)OCc2ccccc2)CCNCC1,36.5 µM (inactive),–,28 µM (inactive),21.1 µM (inactive),1.82 µM (inactive),24 µM (inactive),18 µM (inactive),–,16.3 µM (inactive),20.2 µM (inactive),52.8 µM (inactive),23.9 µM (inactive),20.1 µM (inactive),39.4 µM (inactive),47.5 µM (inactive),32.1 µM (inactive),22 µM (inactive),49.8 µM (inactive),7.03 µM (inactive)
C(=C\Nc1ccc(-c2ccccc2)cc1)/C=N/c1ccc(-c2ccccc2)cc1,> 100 µM (inactive),> 100 µM (inactive),> 100 µM (inactive),> 100 µM (inactive),79.8 µM (inactive),> 100 µM (inactive),> 100 µM (inactive),–,> 100 µM (inactive),> 100 µM (inactive),> 100 µM (inactive),> 100 µM (inactive),> 100 µM (inactive),> 100 µM (inactive),> 100 µM (inactive),> 100 µM (inactive),> 100 µM (inactive),> 100 µM (inactive),> 100 µM (inactive)
O=c1[nH]c(=O)n(COCc2ccccc2)c2ccsc12,60.4 µM (inactive),> 100 µM (inactive),22.2 µM (inactive),15.8 µM (inactive),> 100 µM (inactive),> 100 µM (inactive),> 100 µM (inactive),> 100 µM (inactive),> 100 µM (inactive),> 100 µM (inactive),> 100 µM (inactive),–,> 100 µM (inactive),> 100 µM (inactive),73.8 µM (inactive),> 100 µM (inactive),> 100 µM (inactive),–,–
O=Cc1cccc2c1Oc1c(cccc1C(=O)O)S2,–,23.2 µM (inactive),70.1 µM (inactive),70.8 µM (inactive),> 100 µM (inactive),> 100 µM (inactive),17.3 µM (inactive),81.3 µM (inactive),81.5 µM (inactive),25.7 µM (inactive),–,52.7 µM (inactive),> 100 µM (inactive),85.3 µM (inactive),87.7 µM (inactive),> 100 µM (inactive),62.7 µM (inactive),61.8 µM (inactive),58.3 µM (inactive)
C=CCC1(C#N)C(=S)NC2=C(C(=O)CC(C)(C)C2)C1c1ccccc1 (centres undefined),83.6 µM (inactive),> 100 µM (inactive),19.2 µM (inactive),35.1 µM (inactive),36.7 µM (inactive),33 µM (inactive),74.1 µM (inactive),–,–,52.5 µM (inactive),42.7 µM (inactive),–,46.8 µM (inactive),38.5 µM (inactive),31 µM (inactive),> 100 µM (inactive),30.9 µM (inactive),–,36.4 µM (inactive)
COc1ccc(/N=N/C(=N\c2ccccc2)c2ccc(N(CCC#N)CCC#N)cc2)cc1,–,14.1 µM (inactive),27.4 µM (inactive),> 100 µM (inactive),22.9 µM (inactive),56.4 µM (inactive),28.8 µM (inactive),–,22.7 µM (inactive),41 µM (inactive),19.9 µM (inactive),31.2 µM (inactive),30.3 µM (inactive),88.9 µM (inactive),> 100 µM (inactive),> 100 µM (inactive),31.4 µM (inactive),> 100 µM (inactive),80.9 µM (inactive)
CO[C@]12C[C@H](CNC(=O)c3cc(Br)c(Br)[nH]3)O[C@H]1NC(=O)N2,0.548 µM (active),> 100 µM (inactive),> 100 µM (inactive),25.2 µM (inactive),> 100 µM (inactive),> 100 µM (inactive),> 100 µM (inactive),> 100 µM (inactive),> 100 µM (inactive),> 100 µM (inactive),–,> 100 µM (inactive),> 100 µM (inactive),> 100 µM (inactive),> 100 µM (inactive),> 100 µM (inactive),> 100 µM (inactive),> 100 µM (inactive),> 100 µM (inactive)
Nc1cc2ncnc(Nc3cccc(Br)c3)c2cn1,96.8 µM (inactive),50.4 µM (inactive),–,26.4 µM (inactive),45.2 µM (inactive),54.3 µM (inactive),> 100 µM (inactive),> 100 µM (inactive),–,52.5 µM (inactive),41.5 µM (inactive),26.9 µM (inactive),19.8 µM (inactive),17.6 µM (inactive),67.5 µM (inactive),> 100 µM (inactive),18.7 µM (inactive),8.18 µM (inactive),21.5 µM (inactive)
COC(=O)CN(CC1O[C@@H]2OC(C)(C)O[C@@H]2C1NC(C)=O)C(=O)OCc1ccccc1 (some centres undefined),–,> 100 µM (inactive),> 100 µM (inactive),> 100 µM (inactive),> 100 µM (inactive),> 100 µM (inactive),> 100 µM (inactive),–,> 100 µM (inactive),> 100 µM (inactive),–,> 100 µM (inactive),> 100 µM (inactive),> 100 µM (inactive),> 100 µM (inactive),> 100 µM (inactive),> 100 µM (inactive),> 100 µM (inactive),> 100 µM (inactive)
Cc1ccc2nc(Cl)c(/C=N/N3C(=O)/C(=C/c4ccccc4S)N=C3c3ccccc3)cc2c1,15.5 µM (inactive),28.2 µM (inactive),59.7 µM (inactive),73.6 µM (inactive),> 100 µM (inactive),12.6 µM (inactive),1.85 µM (inactive),–,–,21.4 µM (inactive),–,25.3 µM (inactive),20.4 µM (inactive),35.7 µM (inactive),52.8 µM (inactive),39.2 µM (inactive),28.1 µM (inactive),22.2 µM (inactive),21.9 µM (inactive)
N#Cc1c(-c2ccc(Cl)cc2)cc(-c2ccc(Nc3ccnc4cc(C(F)(F)F)ccc34)cc2)nc1N,12.4 µM (inactive),29.4 µM (inactive),67 µM (inactive),–,28.7 µM (inactive),19.5 µM (inactive),14.6 µM (inactive),63.2 µM (inactive),31.4 µM (inactive),23.4 µM (inactive),22.1 µM (inactive),19.3 µM (inactive),27.8 µM (inactive),22 µM (inactive),16.9 µM (inactive),32.3 µM (inactive),18.7 µM (inactive),39.6 µM (inactive),15.7 µM (inactive)
COc1ccc(C2SCC(=O)N2NC(=O)C(C)Oc2ccc(Cl)cc2Cl)cc1 (centres undefined),–,73.8 µM (inactive),60 µM (inactive),21.1 µM (inactive),26.7 µM (inactive),76.7 µM (inactive),28.3 µM (inactive),–,91.2 µM (inactive),30.7 µM (inactive),25.6 µM (inactive),36.1 µM (inactive),50.2 µM (inactive),41.7 µM (inactive),35 µM (inactive),> 100 µM (inactive),33.7 µM (inactive),49.2 µM (inactive),88.5 µM (inactive)
OC(c1cccs1)c1cc2ccccc2s1 (centres undefined),> 10 µM (inactive),> 10 µM (inactive),> 10 µM (inactive),> 10 µM (inactive),> 10 µM (inactive),> 10 µM (inactive),> 10 µM (inactive),–,> 10 µM (inactive),> 10 µM (inactive),> 10 µM (inactive),> 10 µM (inactive),> 10 µM (inactive),> 10 µM (inactive),> 10 µM (inactive),> 10 µM (inactive),> 10 µM (inactive),> 10 µM (inactive),> 10 µM (inactive)
CC(=O)O[C@H]1CC[C@@]2(C)C(=CC[C@@H]3[C@@H]2CC[C@]2(C)c4c(C)nn(-c5ccccc5)c4C[C@@H]32)C1,11.2 µM (inactive),15.5 µM (inactive),14.9 µM (inactive),22.2 µM (inactive),25.1 µM (inactive),45.7 µM (inactive),13.2 µM (inactive),–,13.7 µM (inactive),–,5.42 µM (inactive),3.55 µM (inactive),–,33.3 µM (inactive),31 µM (inactive),33.5 µM (inactive),20.7 µM (inactive),20.6 µM (inactive),19.4 µM (inactive)
COc1ccc(-n2c(=O)n(C)c(=O)n2-c2ccc(OC)cc2)cc1,> 100 µM (inactive),> 100 µM (inactive),> 100 µM (inactive),> 100 µM (inactive),> 100 µM (inactive),> 100 µM (inactive),> 100 µM (inactive),–,–,> 100 µM (inactive),–,> 100 µM (inactive),> 100 µM (inactive),> 100 µM (inactive),> 100 µM (inactive),> 100 µM (inactive),> 100 µM (inactive),> 100 µM (inactive),> 100 µM (inactive)
